Laboratory results from PMC12298351, “Novel 3,19-(N-Phenyl-3-(4-fluorophenyl)-pyrazole) Acetal of Andrographolide Promotes Cell Cycle Arrest and Apoptosis in MDA-MB-231 Breast Cancer Cells” (Pharmaceuticals, 2025).

Legend:
SF-539 = conditions: SF-539, CNS; for CC50: read-out: 50% lethal concentration (LC50)
HCT-15 = conditions: HCT-15, Colon; for CC50: read-out: 50% lethal concentration (LC50)
PC-3 = conditions: PC-3, Prostate; for CC50: read-out: 50% lethal concentration (LC50)
SK-OV-3 = conditions: SK-OV-3, Ovarian; for CC50: read-out: 50% lethal concentration (LC50)
OVCAR-4 = type: cell-based; conditions: OVCAR-4, Ovarian
CCRF-CEM = conditions: for CC50: read-out: 50% lethal concentration (LC50), Leukemia
UACC-62 = conditions: UACC-62, Melanoma; for CC50: read-out: 50% lethal concentration (LC50)
UACC-257 = conditions: UACC-257, Melanoma
NCI/ADR-RES = conditions: for GI50 / Total growth inhibition (TGI): Ovarian
HOP-92 = conditions: for Total growth inhibition (TGI) / CC50: HOP-92, Non-Small Cell Lung; for GI50: HOP-92, Non-Small-Cell Lung; for CC50: read-out: 50% lethal concentration (LC50)
NCI-H522 = conditions: for Total growth inhibition (TGI) / CC50: NCI-H522, Non-Small Cell Lung; for GI50: NCI-H522, Non-Small-Cell Lung; for CC50: read-out: 50% lethal concentration (LC50)
SNB-75 = conditions: SNB-75, CNS; for CC50: read-out: 50% lethal concentration (LC50)
RPMI-8226 = conditions: RPMI-8226, Leukemia; for CC50: read-out: 50% lethal concentration (LC50)
SF-295 = conditions: SF-295, CNS; for CC50: read-out: 50% lethal concentration (LC50)
MDA-MB-435 = conditions: MDA-MB-435, Melanoma; for CC50: read-out: 50% lethal concentration (LC50)
HS 578T = conditions: for GI50 / Total growth inhibition (TGI): Breast; for CC50: read-out: 50% lethal concentration (LC50), Breast
NCI-H460 = conditions: for Total growth inhibition (TGI) / CC50: NCI-H460, Non-Small Cell Lung; for GI50: NCI-H460, Non-Small-Cell Lung; for CC50: read-out: 50% lethal concentration (LC50)
RXF 393 = conditions: RXF 393, Renal; for CC50: read-out: 50% lethal concentration (LC50)
A498 = conditions: A498, Renal; for CC50: read-out: 50% lethal concentration (LC50)
786-0 = conditions: 786-0, Renal
NCI-H226 = conditions: for Total growth inhibition (TGI) / CC50: NCI-H226, Non-Small Cell Lung; for GI50: NCI-H226, Non-Small-Cell Lung; for CC50: read-out: 50% lethal concentration (LC50)
COLO 205 = conditions: COLO 205, Colon
UO-31 = conditions: UO-31, Renal; for CC50: read-out: 50% lethal concentration (LC50)
OVCAR-3 = conditions: OVCAR-3, Ovarian; for CC50: read-out: 50% lethal concentration (LC50)
SNB-19 = type: cell-based; conditions: SNB-19, CNS
HCT-116 = type: cell-based; conditions: HCT-116, Colon
OVCAR-8 = conditions: OVCAR-8, Ovarian; for CC50: read-out: 50% lethal concentration (LC50)
TK-10 = type: cell-based; conditions: TK-10, Renal
EKVX = conditions: for Total growth inhibition (TGI): Non-Small Cell Lung; for GI50: Non-Small-Cell Lung; for CC50: read-out: 50% lethal concentration (LC50), Non-Small Cell Lung
SN12C = conditions: for GI50 / Total growth inhibition (TGI): Renal; for CC50: read-out: 50% lethal concentration (LC50), Renal
K-562 = conditions: K-562, Leukemia; for CC50: read-out: 50% lethal concentration (LC50)
[1] = read-out: 50% lethal concentration (LC50)

Structure (SMILES): C=C1CCC2C3(C)COC(c4cn(-c5ccccc5)nc4-c4ccc(Br)cc4)OC3CCC2(C)C1CC=C1C(=O)OCC1O (stereo not shown) [1h]
- GI50 (SF-539): 1.76 µM
- Total growth inhibition (TGI) (SF-539): 3.18 µM
- CC50 (SF-539): 5.73 µM
- GI50 (HCT-15): 1.6 µM
- Total growth inhibition (TGI) (HCT-15): 3.3 µM
- CC50 (HCT-15): 6.83 µM
- GI50 (PC-3): 2.03 µM
- CC50 (PC-3): > 100 µM
- GI50 (SK-OV-3): 2.03 µM
- Total growth inhibition (TGI) (SK-OV-3): 8.27 µM
- CC50 (SK-OV-3): > 100 µM
- GI50 (OVCAR-4): 1.89 µM
- Total growth inhibition (TGI) (OVCAR-4): 4.27 µM
- CC50 (OVCAR-4; [1]): > 100 µM
- GI50 (CCRF-CEM; Leukemia): 0.48 µM
- CC50 (CCRF-CEM): > 100 µM
- GI50 (UACC-62): 1.58 µM
- Total growth inhibition (TGI) (UACC-62): 3.13 µM
- CC50 (UACC-62): 6.2 µM
- GI50 (UACC-257): 1.7 µM
- Total growth inhibition (TGI) (UACC-257): 3.35 µM
- GI50 (NCI/ADR-RES): 1.83 µM
- Total growth inhibition (TGI) (NCI/ADR-RES): 4.19 µM
- Total growth inhibition (TGI) (HOP-92): 2.92 µM
- GI50 (HOP-92): 1.38 µM
- CC50 (HOP-92): 6.2 µM
- Total growth inhibition (TGI) (NCI-H522): 3.37 µM
- GI50 (NCI-H522): 1.69 µM
- CC50 (NCI-H522): 6.68 µM
- GI50 (SNB-75): 1.51 µM
- Total growth inhibition (TGI) (SNB-75): 2.91 µM
- CC50 (SNB-75): 5.75 µM
- GI50 (RPMI-8226): 1.28 µM
- Total growth inhibition (TGI) (RPMI-8226): > 100 µM
- CC50 (RPMI-8226): > 100 µM
- GI50 (SF-295): 1.54 µM
- Total growth inhibition (TGI) (SF-295): 2.93 µM
- CC50 (SF-295): 5.57 µM
- GI50 (MDA-MB-435): 1.67 µM
- Total growth inhibition (TGI) (MDA-MB-435): 3.34 µM
- CC50 (MDA-MB-435): 6.67 µM
- GI50 (HS 578T): 1.52 µM
- Total growth inhibition (TGI) (HS 578T): 3.01 µM
- CC50 (HS 578T): 5.94 µM
- Total growth inhibition (TGI) (NCI-H460): 3.34 µM
- GI50 (NCI-H460): 1.59 µM
- CC50 (NCI-H460): 7 µM
- GI50 (RXF 393): 1.71 µM
- Total growth inhibition (TGI) (RXF 393): 3.23 µM
- CC50 (RXF 393): 6.11 µM
- GI50 (A498): 4.35 µM
- Total growth inhibition (TGI) (A498): 1.66 µM
- CC50 (A498): 53.6 µM
- GI50 (786-0): 2.07 µM
- Total growth inhibition (TGI) (786-0): 4.49 µM
- CC50 (786-0; [1]): 9.76 µM
- Total growth inhibition (TGI) (NCI-H226): 2.8 µM
- GI50 (NCI-H226): 1.36 µM
- CC50 (NCI-H226): 5.77 µM
- GI50 (COLO 205): 1.7 µM
- Total growth inhibition (TGI) (COLO 205): 3.51 µM
- GI50 (UO-31): 2.07 µM
- Total growth inhibition (TGI) (UO-31): 2.52 µM
- CC50 (UO-31): 5.34 µM
- GI50 (OVCAR-3): 1.52 µM
- Total growth inhibition (TGI) (OVCAR-3): 3.32 µM
- CC50 (OVCAR-3): 7.25 µM
- GI50 (SNB-19): 1.47 µM
- GI50 (HCT-116): 0.94 µM
- Total growth inhibition (TGI) (HCT-116): 2.48 µM
- CC50 (HCT-116; [1]): 6.3 µM
- GI50 (OVCAR-8): 1.55 µM
- Total growth inhibition (TGI) (OVCAR-8): 3.4 µM
- CC50 (OVCAR-8): 7.45 µM
- GI50 (TK-10): 1.19 µM
- Total growth inhibition (TGI) (EKVX): 5.35 µM
- GI50 (EKVX): 2.21 µM
- CC50 (EKVX): > 100 µM
- GI50 (SN12C): 1.51 µM
- Total growth inhibition (TGI) (SN12C): 3.37 µM
- CC50 (SN12C): 7.48 µM
- GI50 (K-562): 2.07 µM
- CC50 (K-562): > 100 µM

Structure (SMILES): C=C1CCC2C3(C)COC(c4cn(-c5ccccc5)nc4-c4ccc(C)cc4)OC3CCC2(C)C1CC=C1C(=O)OCC1O (stereo not shown) [1i]
- GI50 (SF-539): 1.79 µM
- Total growth inhibition (TGI) (SF-539): 3.19 µM
- CC50 (SF-539): 5.7 µM
- GI50 (HCT-15): 1.59 µM
- Total growth inhibition (TGI) (HCT-15): 3.19 µM
- CC50 (HCT-15): 6.38 µM
- GI50 (PC-3): 1.92 µM
- CC50 (PC-3): > 100 µM
- GI50 (SK-OV-3): 3.47 µM
- Total growth inhibition (TGI) (SK-OV-3): 12.1 µM
- CC50 (SK-OV-3): > 100 µM
- GI50 (OVCAR-4): 1.92 µM
- Total growth inhibition (TGI) (OVCAR-4): 4.27 µM
- GI50 (CCRF-CEM; Leukemia): 8.4 µM
- Total growth inhibition (TGI) (CCRF-CEM; Leukemia): > 100 µM
- CC50 (CCRF-CEM): > 100 µM
- GI50 (UACC-62): 1.64 µM
- Total growth inhibition (TGI) (UACC-62): 3.15 µM
- CC50 (UACC-62): 6.04 µM
- GI50 (UACC-257): 1.74 µM
- Total growth inhibition (TGI) (UACC-257): 3.47 µM
- GI50 (NCI/ADR-RES): 1.65 µM
- Total growth inhibition (TGI) (NCI/ADR-RES): 3.71 µM
- CC50 (NCI/ADR-RES; read-out: 50% lethal concentration (LC50), Ovarian): 8.34 µM
- Total growth inhibition (TGI) (HOP-92): 3.14 µM
- GI50 (HOP-92): 1.43 µM
- CC50 (HOP-92): 6.88 µM
- Total growth inhibition (TGI) (NCI-H522): 3.46 µM
- GI50 (NCI-H522): 1.75 µM
- CC50 (NCI-H522): 6.86 µM
- GI50 (SNB-75): 1.71 µM
- Total growth inhibition (TGI) (SNB-75): 2.99 µM
- CC50 (SNB-75): 6.55 µM
- GI50 (RPMI-8226): 8.6 µM
- Total growth inhibition (TGI) (RPMI-8226): > 100 µM
- CC50 (RPMI-8226): > 100 µM
- GI50 (SF-295): 1.58 µM
- Total growth inhibition (TGI) (SF-295): 2.96 µM
- CC50 (SF-295): 5.54 µM
- GI50 (MDA-MB-435): 1.61 µM
- Total growth inhibition (TGI) (MDA-MB-435): 3.31 µM
- CC50 (MDA-MB-435): 6.79 µM
- GI50 (HS 578T): 1.85 µM
- Total growth inhibition (TGI) (HS 578T): 3.41 µM
- CC50 (HS 578T): 6.28 µM
- Total growth inhibition (TGI) (NCI-H460): 3.56 µM
- GI50 (NCI-H460): 1.83 µM
- CC50 (NCI-H460): 6.91 µM
- GI50 (RXF 393): 1.49 µM
- Total growth inhibition (TGI) (RXF 393): 2.97 µM
- CC50 (RXF 393): 5.92 µM
- GI50 (A498): 4.03 µM
- Total growth inhibition (TGI) (A498): 15.8 µM
- CC50 (A498): 48.8 µM
- GI50 (786-0): 1.77 µM
- Total growth inhibition (TGI) (786-0): 3.69 µM
- Total growth inhibition (TGI) (NCI-H226): 2.95 µM
- GI50 (NCI-H226): 1.47 µM
- CC50 (NCI-H226): 5.92 µM
- GI50 (COLO 205): 1.97 µM
- Total growth inhibition (TGI) (COLO 205): 4.5 µM
- GI50 (UO-31): 1.77 µM
- Total growth inhibition (TGI) (UO-31): 2.67 µM
- CC50 (UO-31): 5.36 µM
- GI50 (OVCAR-3): 1.95 µM
- Total growth inhibition (TGI) (OVCAR-3): 3.82 µM
- CC50 (OVCAR-3): 7.49 µM
- GI50 (SNB-19): 1.36 µM
- GI50 (HCT-116): 3.91 µM
- Total growth inhibition (TGI) (HCT-116): 1.52 µM
- GI50 (OVCAR-8): 1.67 µM
- Total growth inhibition (TGI) (OVCAR-8): 3.51 µM
- CC50 (OVCAR-8): 7.37 µM
- GI50 (TK-10): 1.33 µM
- Total growth inhibition (TGI) (EKVX): 4.96 µM
- GI50 (EKVX): 2.13 µM
- CC50 (EKVX): > 100 µM
- GI50 (SN12C): 1.66 µM
- Total growth inhibition (TGI) (SN12C): 3.44 µM
- CC50 (SN12C): 7.15 µM
- GI50 (K-562): 3.82 µM
- Total growth inhibition (TGI) (K-562): > 100 µM
- CC50 (K-562): > 100 µM
